# Test results from patent publication US11878970B2, “Allosteric chromenone inhibitors of phosphoinositide 3-kinase (PI3K) for the treatment of disease” (Petra Pharma Corporation, priority 2021, dated 2024).
# Columns and labels:
# [1] = biological target: PI3K-α (PIK3CA) in MDA-MB-453 cells (Homo sapiens, UniProt P42336); experiment: PI3K-alpha kinase (PIK3CA) in vitro cell based assay, MDA-MB-453 cells, SureFire Ultra AlphaLisa; conditions: read-out: PI3K-α (PIK3CA) in vitro cell based assay IC50
# Summary of the method: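 Cells treated 3 h in serum-free MEM with 1 μg/mL insulin, 10-point 1:3 series in 0.3% DMSO, then lysed for SureFire Ultra AlphaLisa read-out. Inhibition normalized to DMSO (max) and 1 μM GDC-0032 (min); duplicate averages fitted by 4-parameter logistic for relative IC50.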
# [2] = biological target: T1, PI3K-α (PIK3CA) wild-type (WT), p110α/p85α complex (Homo sapiens, UniProt P42336); experiment: PI3K-alpha kinase (PIK3CA) biochemical activity, ADP-Glo, wild-type; conditions: Soy PI lipid substrate
# T1 construct: Recombinant, catalytically active human full length PIK3KA Wild-type and H1047R mutant; 6×His (N); purchased EMD Millipore Sigma 14-602M
# Summary of the method: (§1)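 ADP formation measured by ADP-Glo luminescence after reaction at 27 °C to about 10% ATP turnover, using 20 uM ATP, 50 uM PIP2diC8 or soy PI lipid, HEPES pH 7.4 with MgCl2. Enzyme (1-5 nM WT or H1047R p110α/p85α) and compound preincubated 1 h first; 10-point 1:3 curves fitted four-parameter for IC50.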
# [3] = biological target: T2, PI3K-α (PIK3CA) H1047R mutant, p110α/p85α complex (Homo sapiens, UniProt P42336, H1047R); experiment: PI3K-alpha kinase (PIK3CA) biochemical activity, ADP-Glo, H1047R mutant; conditions: Soy PI lipid substrate
# T2 construct: Recombinant, catalytically active human full length PIK3KA Wild-type and H1047R mutant; 6×His (N); purchased EMD Millipore Sigma 14-792M
# Summary of the method: as §1
# T2 sequence (P42336 whole entry H1047R): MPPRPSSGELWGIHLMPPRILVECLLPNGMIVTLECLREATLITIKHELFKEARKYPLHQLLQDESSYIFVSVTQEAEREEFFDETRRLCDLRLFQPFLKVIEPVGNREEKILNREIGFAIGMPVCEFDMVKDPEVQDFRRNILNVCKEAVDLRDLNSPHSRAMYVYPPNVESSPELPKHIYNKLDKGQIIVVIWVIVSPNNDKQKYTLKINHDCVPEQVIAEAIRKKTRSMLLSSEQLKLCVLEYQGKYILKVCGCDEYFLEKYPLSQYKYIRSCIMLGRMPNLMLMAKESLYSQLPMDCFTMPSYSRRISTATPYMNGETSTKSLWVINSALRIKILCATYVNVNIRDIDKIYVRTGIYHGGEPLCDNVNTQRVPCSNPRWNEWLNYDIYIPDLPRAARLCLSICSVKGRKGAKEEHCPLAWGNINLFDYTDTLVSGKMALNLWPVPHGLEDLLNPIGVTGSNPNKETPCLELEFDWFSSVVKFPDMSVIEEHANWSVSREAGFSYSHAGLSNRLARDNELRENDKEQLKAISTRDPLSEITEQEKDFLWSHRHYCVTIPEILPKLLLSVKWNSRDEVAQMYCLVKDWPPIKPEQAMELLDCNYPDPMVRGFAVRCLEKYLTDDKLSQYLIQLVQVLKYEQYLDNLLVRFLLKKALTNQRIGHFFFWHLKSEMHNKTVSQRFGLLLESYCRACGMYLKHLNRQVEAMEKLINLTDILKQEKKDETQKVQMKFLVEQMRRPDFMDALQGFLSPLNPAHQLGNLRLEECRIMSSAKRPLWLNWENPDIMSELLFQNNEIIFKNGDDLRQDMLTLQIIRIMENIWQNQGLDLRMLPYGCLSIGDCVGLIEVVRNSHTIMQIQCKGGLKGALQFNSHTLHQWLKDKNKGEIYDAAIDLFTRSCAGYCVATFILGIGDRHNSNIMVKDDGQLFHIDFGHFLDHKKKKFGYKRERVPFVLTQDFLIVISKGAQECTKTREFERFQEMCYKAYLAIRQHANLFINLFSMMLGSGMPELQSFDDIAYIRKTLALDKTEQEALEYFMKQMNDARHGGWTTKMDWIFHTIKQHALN
# T2 sequence (P27986 whole entry partner): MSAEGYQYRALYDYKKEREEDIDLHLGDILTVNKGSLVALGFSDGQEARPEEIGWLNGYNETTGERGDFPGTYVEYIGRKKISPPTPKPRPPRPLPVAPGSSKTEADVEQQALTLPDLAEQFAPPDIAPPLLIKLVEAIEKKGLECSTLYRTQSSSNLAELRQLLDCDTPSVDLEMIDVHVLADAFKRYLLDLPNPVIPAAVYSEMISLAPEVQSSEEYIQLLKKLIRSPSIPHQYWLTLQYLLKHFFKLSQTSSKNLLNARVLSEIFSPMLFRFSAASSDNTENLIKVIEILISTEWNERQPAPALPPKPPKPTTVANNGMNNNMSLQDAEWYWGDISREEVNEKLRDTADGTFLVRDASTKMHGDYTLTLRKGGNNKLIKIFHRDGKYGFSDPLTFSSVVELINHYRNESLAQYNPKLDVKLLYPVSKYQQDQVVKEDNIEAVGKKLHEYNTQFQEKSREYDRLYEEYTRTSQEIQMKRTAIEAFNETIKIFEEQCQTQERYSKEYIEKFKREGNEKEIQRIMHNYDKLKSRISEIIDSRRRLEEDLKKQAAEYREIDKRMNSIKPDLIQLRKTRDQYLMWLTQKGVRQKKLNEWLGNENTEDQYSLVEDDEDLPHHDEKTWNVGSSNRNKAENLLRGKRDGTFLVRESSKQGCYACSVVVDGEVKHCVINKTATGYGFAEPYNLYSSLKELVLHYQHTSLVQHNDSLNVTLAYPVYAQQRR
# Sequence of PI3K-α (PIK3CA) in MDA-MB-453 cells (P27986 2-724): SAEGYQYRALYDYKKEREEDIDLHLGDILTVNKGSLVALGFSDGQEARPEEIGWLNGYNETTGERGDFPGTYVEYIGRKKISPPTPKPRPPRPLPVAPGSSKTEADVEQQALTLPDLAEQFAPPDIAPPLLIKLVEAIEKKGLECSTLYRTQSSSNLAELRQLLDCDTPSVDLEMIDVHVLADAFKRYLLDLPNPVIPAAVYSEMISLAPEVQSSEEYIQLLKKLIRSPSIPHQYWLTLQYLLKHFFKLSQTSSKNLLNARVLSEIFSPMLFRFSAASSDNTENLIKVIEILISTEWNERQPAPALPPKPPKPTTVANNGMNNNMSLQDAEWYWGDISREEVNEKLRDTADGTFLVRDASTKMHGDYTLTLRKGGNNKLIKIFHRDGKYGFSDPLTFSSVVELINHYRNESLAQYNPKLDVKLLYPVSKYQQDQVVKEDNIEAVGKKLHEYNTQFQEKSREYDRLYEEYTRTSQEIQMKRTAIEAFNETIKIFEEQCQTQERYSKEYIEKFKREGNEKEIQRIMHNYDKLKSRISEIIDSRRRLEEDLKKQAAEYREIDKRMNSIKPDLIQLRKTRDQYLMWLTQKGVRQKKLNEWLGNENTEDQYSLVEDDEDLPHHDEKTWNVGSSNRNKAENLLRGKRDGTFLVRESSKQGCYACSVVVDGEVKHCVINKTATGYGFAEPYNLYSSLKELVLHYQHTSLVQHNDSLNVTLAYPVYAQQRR
# Sequence of PI3K-α (PIK3CA) in MDA-MB-453 cells (P42336 whole entry): as the sequence (P42336 whole entry H1047R) above, with R1047H counted along it
IC50 [1],IC50 [2],IC50 [3],SMILES
50 to 100 nM,1000 to 5000 nM,< 500 nM,"Cc1cc([C@@H](C)Nc2ccc(C(F)(F)F)cc2C(=O)O)c2oc(-c3ccc4nn(C)cc4c3)c(C)c(=O)c2c1 [Example 235, 2-[[(1R)-1-[3,6-Dimethyl-2-(2-methylindazol-5-yl)-4-oxo-chromen-8-yl]ethyl]amino]-5-(trifluoromethyl)benzoic acid]"
< 50 nM,< 500 nM,< 500 nM,"Cc1cc([C@@H](C)Nc2ccc(Br)nc2C(=O)O)c2oc(-c3ccc4nn(C)cc4c3)c(C)c(=O)c2c1 [Example 244, 6-Bromo-3-[[(1R)-1-[3,6-dimethyl-2-(2-methylindazol-5-yl)-4-oxo-chromen-8-yl]ethyl]amino]pyridine-2-carboxylic acid]"
< 50 nM,< 500 nM,< 500 nM,"Cc1cc(C(C)Nc2ccc(Cl)nc2C(=O)O)c2oc(-c3ccc4cnn(C)c4c3)cc(=O)c2c1 (single isomer, unassigned) [Example 220, 6-Chloro-3-[1-[6-methyl-2-(1-methylindazol-6-yl)-4-oxo-chromen-8-yl]ethylamino]pyridine-2-carboxylic acid]"
< 50 nM,500 to 1000 nM,< 500 nM,"Cc1cc(C(C)Nc2ccccc2C(=O)O)c2oc(-c3ccc4c(c3)OCO4)c(C)c(=O)c2c1 (single isomer, unassigned) [Example 93, 2-[1-[2-(1,3-Benzodioxol-5-yl)-3,6-dimethyl-4-oxo-chromen-8-yl]ethylamino]benzoic acid]"
> 500 nM,> 10000 nM,> 10000 nM,"Cc1cc(C(C)Nc2ccccc2C(=O)O)c2oc(-c3cnn4cccnc34)cc(=O)c2c1 (single isomer, unassigned) [Example 33, 2-[1-(6-Methyl-4-oxo-2-pyrazolo[1,5-a]pyrimidin-3-yl-chromen-8-yl)ethylamino]benzoic acid]"
< 50 nM,< 500 nM,< 500 nM,"Cc1cc([C@@H](C)Nc2ccc(Br)nc2C(=O)O)c2oc(-c3ccc4nc(C)sc4n3)c(C)c(=O)c2c1 [Example 245, 6-Bromo-3-[[(1R)-1-[3,6-dimethyl-2-(2-methylthiazolo[5,4-b]pyridin-5-yl)-4-oxo-chromen-8-yl]ethyl]amino]pyridine-2-carboxylic acid]"
< 50 nM,500 to 1000 nM,< 500 nM,"Cc1cc([C@@H](C)Nc2ccc(C(F)(F)F)nc2C(=O)O)c2oc(-c3ccc4nn(C)cc4c3)c(C)c(=O)c2c1 [Example 236, 3-[[(1R)-1-[3,6-Dimethyl-2-(2-methylindazol-5-yl)-4-oxo-chromen-8-yl]ethyl]amino]-6-(trifluoromethyl)pyridine-2-carboxylic acid]"
< 50 nM,500 to 1000 nM,< 500 nM,"Cc1cc(C(C)Nc2ccccc2C(=O)O)c2oc(-c3ccc4nn(C)cc4c3)c(C)c(=O)c2c1 (single isomer, unassigned) [Example 91, 2-[1-[3,6-Dimethyl-2-(2-methylindazol-5-yl)-4-oxo-chromen-8-yl]ethylamino]benzoic acid]"
< 50 nM,500 to 1000 nM,< 500 nM,"Cc1cc(C(C)Nc2ccccc2C(=O)O)c2oc(-c3ccc4nn(C)cc4c3)cc(=O)c2c1 (single isomer, unassigned) [Example 75, 2-[1-[6-Methyl-2-(2-methylindazol-5-yl)-4-oxo-chromen-8-yl]ethylamino]benzoic acid]"
50 to 100 nM,1000 to 5000 nM,500 to 1000 nM,"COc1ccc2nc(-c3cc(=O)c4cc(C)cc([C@@H](C)Nc5ccccc5C(=O)O)c4o3)ccc2n1 [Example 255, 2-[[(1R)-1-[2-(6-Methoxy-1,5-naphthyridin-2-yl)-6-methyl-4-oxo-chromen-8-yl]ethyl]amino]benzoic acid]"
50 to 100 nM,1000 to 5000 nM,< 500 nM,"Cc1cc([C@@H](C)Nc2ccc(Cl)nc2C(=O)O)c2oc(-c3ccc4nc(C)sc4n3)cc(=O)c2c1 [Example 251, 6-Chloro-3-[[(1R)-1-[6-methyl-2-(2-methylthiazolo[5,4-b]pyridin-5-yl)-4-oxo-chromen-8-yl]ethyl]amino]pyridine-2-carboxylic acid]"
50 to 100 nM,1000 to 5000 nM,< 500 nM,"COc1ccc2cc(-c3cc(=O)c4cc(C)cc([C@@H](C)Nc5ccccc5C(=O)O)c4o3)ccc2n1 [Example 249, 2-[[(1R)-1-[2-(2-Methoxy-6-quinolyl)-6-methyl-4-oxo-chromen-8-yl]ethyl]amino]benzoic acid]"
50 to 100 nM,500 to 1000 nM,< 500 nM,"Cc1cc([C@@H](C)Nc2ccc(F)c(F)c2C(=O)O)c2oc(-c3ccc4nn(C)cc4c3)c(C)c(=O)c2c1 [Example 204, 6-[[(1R)-1-[3,6-Dimethyl-2-(2-methylindazol-5-yl)-4-oxo-chromen-8-yl]ethyl]amino]-2,3-difluoro-benzoic acid]"
100 to 500 nM,500 to 1000 nM,< 500 nM,"Cc1cc([C@@H](C)Nc2cccc(F)c2C(=O)O)c2oc(-c3ccc4nc(C)cn4c3)cc(=O)c2c1 [Example 228, 2-Fluoro-6-[[(1R)-1-[6-methyl-2-(2-methylimidazo[1,2-a]pyridin-6-yl)-4-oxo-chromen-8-yl]ethyl]amino]benzoic acid]"

SMILES,IC50 [1],IC50 [2],IC50 [3]
"CC(Nc1ccccc1C(=O)O)c1cc(F)cc2c(=O)cc(-c3cc4ccccc4[nH]3)oc12 (single isomer, unassigned) [Example 128, 2-[1-[6-Fluoro-2-(1H-indol-2-yl)-4-oxo-chromen-8-yl]ethylamino]benzoic acid]",< 50 nM,500 to 1000 nM,< 500 nM
"Cc1cc(C(C)Nc2ccc(Cl)nc2C(=O)O)c2oc(-c3ccc4cc[nH]c4n3)cc(=O)c2c1 (single isomer, unassigned) [Example 216, 6-Chloro-3-[1-[6-methyl-4-oxo-2-(1H-pyrrolo[2,3-b]pyridin-6-yl)chromen-8-yl]ethylamino]pyridine-2-carboxylic acid]",> 500 nM,> 10000 nM,1000 to 5000 nM
"Cc1cc(C(C)Nc2ccccc2C(=O)O)c2oc(-c3cc(Cl)c4nn(C)cc4c3)cc(=O)c2c1 (single isomer, unassigned) [Example 95, 2-[1-[2-(7-Chloro-2-methyl-indazol-5-yl)-6-methyl-4-oxo-chromen-8-yl]ethylamino]benzoic acid]",< 50 nM,500 to 1000 nM,< 500 nM
"Cc1cc(C(C)Nc2ccccc2C(=O)O)c2oc(-c3ccc4cnn(C)c4c3)c(C)c(=O)c2c1 (single isomer, unassigned) [Example 149, 2-[1-[3,6-Dimethyl-2-(1-methylindazol-6-yl)-4-oxo-chromen-8-yl]ethylamino]benzoic acid]",< 50 nM,< 500 nM,< 500 nM
"Cc1cc(C(C)Nc2ccc(Cl)nc2C(=O)O)c2oc(-c3ccc4cc[nH]c4n3)cc(=O)c2c1 (stereo not drawn) [Example 195, 6-Chloro-3-[1-[6-methyl-4-oxo-2-(1H-pyrrolo[2,3-b]pyridin-6-yl)chromen-8-yl]ethylamino]pyridine-2-carboxylic acid]",< 50 nM,500 to 1000 nM,< 500 nM
"Cc1cc(C(C)Nc2ccccc2C(=O)O)c2oc(-c3ccc4nc(C)sc4c3)cc(=O)c2c1 (single isomer, unassigned) [Example 74, 2-[1-[6-Methyl-2-(2-methyl-1,3-benzothiazol-6-yl)-4-oxo-chromen-8-yl]ethylamino]benzoic acid]",< 50 nM,500 to 1000 nM,< 500 nM
"Cc1cc(C(C)Nc2ccccc2C(=O)O)c2oc(-c3cc(C)c4nn(C)cc4c3)cc(=O)c2c1 (single isomer, unassigned) [Example 126, 2-[1-[2-(2,7-Dimethylindazol-5-yl)-6-methyl-4-oxo-chromen-8-yl]ethylamino]benzoic acid]",< 50 nM,1000 to 5000 nM,< 500 nM
"Cc1cc(C(C)Nc2ccccc2C(=O)O)c2oc(-n3ncc4c(F)cccc43)cc(=O)c2c1 (single isomer, unassigned) [Example 86]",50 to 100 nM,500 to 1000 nM,< 500 nM
"Cc1cc(C(C)Nc2ccccc2C(=O)O)c2oc(-c3ccc4c(cnn4C)c3)c(C)c(=O)c2c1 (single isomer, unassigned) [Example 150, 2-[1-[3,6-Dimethyl-2-(1-methylindazol-5-yl)-4-oxo-chromen-8-yl]ethylamino]benzoic acid]",< 50 nM,< 500 nM,< 500 nM
"Cc1cc(C(C)Nc2ccccc2C(=O)O)c2oc(-c3ccn4nncc4c3)cc(=O)c2c1 (single isomer, unassigned) [Example 58, 2-[1-[6-Methyl-4-oxo-2-(triazolo[1,5-a]pyridin-5-yl)chromen-8-yl]ethylamino]benzoic acid]",100 to 500 nM,1000 to 5000 nM,< 500 nM
"Cc1cc(C(C)Nc2ccccc2C(=O)O)c2oc(-c3cccc4ocnc34)cc(=O)c2c1 (single isomer, unassigned) [Example 110, 2-[1-[2-(1,3-Benzoxazol-4-yl)-6-methyl-4-oxo-chromen-8-yl]ethylamino]benzoic acid]",< 50 nM,5000 to 10000 nM,< 500 nM
